Publication PMC9304322, “Targeting retinoic acid receptor alpha-corepressor interaction activates chaperone-mediated autophagy and protects against retinal degeneration” (Nature Communications, 2022)
Where “and” joins values, the source holds several entries; their conditions need not be identical. Equal values may be shown once.

Experiments:
[1] = tested on: neuroblastoma cell line N2a expressing the KFERQ-PS-Dendra reporter; assay: CMA activity, KFERQ-PS-Dendra reporter in N2a cells; type: cell-based, mouse; design: CMA activity, mean (Fig. S2a): unit not given here
Description: (§1) Cells were transduced with lentivirus carrying the KFERQ-PS-Dendra reporter as before. Cells were photoactivated by exposure to a 3.5 mA (current constant) light emitting diode (LED: Norlux, 405 nm) for 3 min and then plated in glass-bottom 96 well plates. At the desired times, cells were fixed with 4% PFA and imaged using high-content microscopy (Operetta system, Perkin Elmer). Images were quantified using the manufacturer’s software in a minimum of 1,200 cells in 9 independent fields per well. […] This was particularly important in the case of primary human cells where the efficiency of transduction was ~65%. To avoid confounding effects for drug-induced changes in cell volume or adherence to the plate that could bring a fraction of the cells per field outside of focus, we set a threshold to count only […] that have at least 1/10 of the average number of […] detected in the untreated wells for each cell type (3–4 puncta/cell in the case of NIH3T3 and N2a cells and 5 puncta/cell in primary human fibroblasts).

[2] = tested on: NIH3T3 stably expressing the KFERQ-PS-Dendra; assay: CMA activity, KFERQ-PS-Dendra fluorescent reporter in NIH3T3 mouse fibroblasts; type: cell-based; design: CMA activity (Fig. 1d), MEAN / CMA activity (Fig. 1e-g), mean / CMA activity (Fig. 1d), individual experiments / CMA activity, mean (Fig. S2c, second panel) / CMA activity, mean (Fig. S2c, first panel) / CMA activity, mean (Fig. S2c, third panel): unit not given here; settings: for CMA activity (Fig. 1e-g), mean: n = 4
Description: as §1

## Cc1ccc(C2=Nc3ccc(Cl)cc3OC2)cc1 [AR7, reference compound]
[1]; 12+12w, concentration 0.2
  CMA activity, mean relative to concentration 0 = 1 (Fig. S2b): 0.9288
[1]; 12+12w, concentration 2
  CMA activity, mean relative to concentration 0 = 1 (Fig. S2b): 0.9525
[1]; 12+12w, concentration 5
  CMA activity, mean relative to concentration 0 = 1 (Fig. S2b): 0.9471
[1]; 12+12w, concentration 10
  CMA activity, mean relative to concentration 0 = 1 (Fig. S2b): 0.8786
[1]; 12+12w, concentration 20
  CMA activity, mean relative to concentration 0 = 1 (Fig. S2b): 0.875
[1]; 12+12w, concentration 30
  CMA activity, mean relative to concentration 0 = 1 (Fig. S2b): 0.9362
[1]; 12h, concentration 0.02
  CMA activity, mean (Fig. S2a): 5.372
[1]; 12h, concentration 0.2
  CMA activity, mean (Fig. S2a): 5.3273
  CMA activity, mean relative to concentration 0 = 1 (Fig. S2b): 1.02
[1]; 12h, concentration 2
  CMA activity, mean (Fig. S2a): 5.394
  CMA activity, mean relative to concentration 0 = 1 (Fig. S2b): 1.033
[1]; 12h, concentration 5
  CMA activity, mean (Fig. S2a): 6.224
  CMA activity, mean relative to concentration 0 = 1 (Fig. S2b): 1.192
[1]; 12h, concentration 10
  CMA activity, mean (Fig. S2a): 5.944
  CMA activity, mean relative to concentration 0 = 1 (Fig. S2b): 1.138
[1]; 12h, concentration 20
  CMA activity, mean (Fig. S2a): 6.2128
  CMA activity, mean relative to concentration 0 = 1 (Fig. S2b): 1.19
[1]; 12h, concentration 30
  CMA activity, mean (Fig. S2a): 6.043
  CMA activity, mean relative to concentration 0 = 1 (Fig. S2b): 1.157
[1]; 12h, concentration 40
  CMA activity, mean (Fig. S2a): 6.596
[1]; 12h, concentration 50
  CMA activity, mean (Fig. S2a): 6.394
[1]; 12h, concentration 60
  CMA activity, mean (Fig. S2a): 6.271
[1]; 24h, concentration 0.02
  CMA activity, mean (Fig. S2a): 5.48
[1]; 24h, concentration 0.2
  CMA activity, mean (Fig. S2a): 5.351
  CMA activity, mean relative to concentration 0 = 1 (Fig. S2b): 0.8724
[1]; 24h, concentration 2
  CMA activity, mean (Fig. S2a): 5.879
  CMA activity, mean relative to concentration 0 = 1 (Fig. S2b): 0.9586
[1]; 24h, concentration 5
  CMA activity, mean (Fig. S2a): 6.0743
  CMA activity, mean relative to concentration 0 = 1 (Fig. S2b): 0.9904
[1]; 24h, concentration 10
  CMA activity, mean (Fig. S2a): 6.105
  CMA activity, mean relative to concentration 0 = 1 (Fig. S2b): 0.9953
[1]; 24h, concentration 20
  CMA activity, mean (Fig. S2a): 6.658
  CMA activity, mean relative to concentration 0 = 1 (Fig. S2b): 1.086
[1]; 24h, concentration 30
  CMA activity, mean (Fig. S2a): 7.455
  CMA activity, mean relative to concentration 0 = 1 (Fig. S2b): 1.2156
[1]; 24h, concentration 40
  CMA activity, mean (Fig. S2a): 8.122
[1]; 24h, concentration 50
  CMA activity, mean (Fig. S2a): 8.426
[1]; 24h, concentration 60
  CMA activity, mean (Fig. S2a): 8.941
[2]; 20 μM of each compound, n = 3 independent experiments
  CMA activity (Fig. 1d), MEAN: 1.943
[2]; 20 μM of each compound, single experiments
  CMA activity (Fig. 1d), individual experiments: 1.682 and 2.334 and 1.814
[2]; 12h, concentration 0.02 (unit not given)
  CMA activity (Fig. 1e-g), mean: 12.0505
[2]; 12h, concentration 0.2
  CMA activity (Fig. 1e-g), mean: 11.7342
[2]; 12h, concentration 2
  CMA activity (Fig. 1e-g), mean: 11.803
[2]; 12h, concentration 5
  CMA activity (Fig. 1e-g), mean: 19.8949
[2]; 12h, concentration 10
  CMA activity (Fig. 1e-g), mean: 20.5334
[2]; 12h, concentration 20
  CMA activity (Fig. 1e-g), mean: 21.2219
[2]; 12h, concentration 30
  CMA activity (Fig. 1e-g), mean: 22.9989
[2]; 12h, concentration 40
  CMA activity (Fig. 1e-g), mean: 22.6487
[2]; 12h, concentration 50
  CMA activity (Fig. 1e-g), mean: 26.5841
[2]; 24h, concentration 0.02
  CMA activity (Fig. 1e-g), mean: 9.918
[2]; 24h, concentration 0.2
  CMA activity (Fig. 1e-g), mean: 11.4731
[2]; 24h, concentration 2
  CMA activity (Fig. 1e-g), mean: 13.7252
[2]; 24h, concentration 5
  CMA activity (Fig. 1e-g), mean: 18.3275
[2]; 24h, concentration 10
  CMA activity (Fig. 1e-g), mean: 23.1811
[2]; 24h, concentration 20
  CMA activity (Fig. 1e-g), mean: 24.726
[2]; 24h, concentration 30
  CMA activity (Fig. 1e-g), mean: 25.9835
[2]; 24h, concentration 40
  CMA activity (Fig. 1e-g), mean: 28.2999
[2]; 24h, concentration 50
  CMA activity (Fig. 1e-g), mean: 27.6884
[2]; concentration 0.2, 12+12w (12 h, then 12 h after washing out)
  CMA activity (Fig. 1h-j), mean, untreated (0) = 1: 0.9356
[2]; concentration 0.2, 12h
  CMA activity (Fig. 1h-j), mean, untreated (0) = 1: 1.057
[2]; concentration 0.2, 24h
  CMA activity (Fig. 1h-j), mean, untreated (0) = 1: 0.9789
[2]; concentration 2, 12+12w
  CMA activity (Fig. 1h-j), mean, untreated (0) = 1: 0.9942
[2]; concentration 2, 12h
  CMA activity (Fig. 1h-j), mean, untreated (0) = 1: 1.064
[2]; concentration 2, 24h
  CMA activity (Fig. 1h-j), mean, untreated (0) = 1: 1.171
[2]; concentration 5, 12+12w
  CMA activity (Fig. 1h-j), mean, untreated (0) = 1: 1.015
[2]; concentration 5, 12h
  CMA activity (Fig. 1h-j), mean, untreated (0) = 1: 1.7927
[2]; concentration 5, 24h
  CMA activity (Fig. 1h-j), mean, untreated (0) = 1: 1.564
[2]; concentration 10, 12+12w
  CMA activity (Fig. 1h-j), mean, untreated (0) = 1: 0.9858
[2]; concentration 10, 12h
  CMA activity (Fig. 1h-j), mean, untreated (0) = 1: 1.85
[2]; concentration 10, 24h
  CMA activity (Fig. 1h-j), mean, untreated (0) = 1: 1.978
[2]; concentration 20, 12+12w
  CMA activity (Fig. 1h-j), mean, untreated (0) = 1: 0.9968
[2]; concentration 20, 12h
  CMA activity (Fig. 1h-j), mean, untreated (0) = 1: 1.912
[2]; concentration 20, 24h
  CMA activity (Fig. 1h-j), mean, untreated (0) = 1: 2.11
[2]; concentration 30, 12+12w
  CMA activity (Fig. 1h-j), mean, untreated (0) = 1: 1.224
[2]; concentration 30, 12h
  CMA activity (Fig. 1h-j), mean, untreated (0) = 1: 2.072
[2]; concentration 30, 24h
  CMA activity (Fig. 1h-j), mean, untreated (0) = 1: 2.217
